Measured values published in the supplement of paper PMC10307832.

Key:
Assay in all cases: relative viability (nuclei count vs DMSO), 5 days (fraction); higher = more cells survive
201T = system: 201T
Method in brief: (§1)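 After 5 days of treatment, lung cancer cells in 1536-well plates were fixed and stained in a single step (final 0.05% Triton X-100, 1% formaldehyde, 1 ug/ml Hoechst) and their nuclei counted on 4× images. Treatment had been applied by pin tool the day after seeding as one drug alone or as a fixed anchor-drug dose with five library-drug doses (not always all listed) in √10 steps. Relative viability is the nuclei count of treated wells divided by that of vehicle wells, and values are medians of duplicate plates.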

PC-14 = system: PC-14
Method in brief: as §1

NCI-H23 = system: NCI-H23
Method in brief: as §1

NCI-H1793 = system: NCI-H1793
Method in brief: as §1

NCI-H358 = system: NCI-H358
Method in brief: as §1

EMC-BAC-2 = system: EMC-BAC-2
Method in brief: as §1

NCI-H1755 = system: NCI-H1755
Method in brief: as §1

SK-MES-1 = system: SK-MES-1
Method in brief: as §1

HCC-366 = system: HCC-366
Method in brief: as §1

NCI-H1437 = system: NCI-H1437
Method in brief: as §1

NCI-H1395 = system: NCI-H1395
Method in brief: as §1

NCI-H650 = system: NCI-H650
Method in brief: as §1

NCI-H2342 = system: NCI-H2342
Method in brief: as §1

COR-L 105 = system: COR-L 105
Method in brief: as §1

NCI-H2347 = system: NCI-H2347
Method in brief: as §1

NCI-H2023 = system: NCI-H2023
Method in brief: as §1

COR-L23 = system: COR-L23
Method in brief: as §1

HCC-15 = system: HCC-15
Method in brief: as §1

NCI-H1792 = system: NCI-H1792
Method in brief: as §1

LC-2-ad = system: LC-2-ad
Method in brief: as §1

NCI-H1915 = system: NCI-H1915
Method in brief: as §1

NCI-H2009 = system: NCI-H2009
Method in brief: as §1

Molecule `CCNC(=O)c1noc(-c2cc(C(C)C)c(O)cc2O)c1-c1ccc(CN2CCOCC2)cc1` [Luminespib] + Nc1nc2[nH]cc(CCc3ccc(C(=O)N[C@@H](CCC(=O)O)C(=O)O)cc3)c2c(=O)[nH]1 [Pemetrexed] (partner 0.2 µM) has a relative viability (201T; first compound 0.002 µM) of 0.333, a relative viability (201T; first compound 0.006325 µM) of 0.311 and a relative viability (201T; first compound 0.02 µM) of 0.346. For the same molecule, the relative viability (201T; first compound 0.06325 µM) was 0.359, the relative viability (201T; first compound 0.2 µM) was 0.206 and the relative viability (PC-14; first compound 0.002 µM) was 0.148. The relative viability (PC-14; first compound 0.006325 µM) was 0.175, the relative viability (PC-14; first compound 0.02 µM) was 0.132 and the relative viability (PC-14; first compound 0.06325 µM) was 0.0853. For the same molecule, the relative viability (PC-14; first compound 0.2 µM) was 0.0503, the relative viability (NCI-H23; first compound 0.002 µM) was 0.743 and the relative viability (NCI-H23; first compound 0.006325 µM) was 0.655. The relative viability (NCI-H23; first compound 0.02 µM) was 0.391, the relative viability (NCI-H23; first compound 0.06325 µM) was 0.139 and the relative viability (NCI-H23; first compound 0.2 µM) was 0.14. The relative viability (NCI-H1793; first compound 0.002 µM) was 0.859, the relative viability (NCI-H1793; first compound 0.006325 µM) was 0.741 and the relative viability (NCI-H1793; first compound 0.02 µM) was 0.294. For the same molecule, the relative viability (NCI-H1793; first compound 0.06325 µM) was 0.122, the relative viability (NCI-H1793; first compound 0.2 µM) was 0.119 and the relative viability (NCI-H358; first compound 0.002 µM) was 0.186. It also gave a relative viability (NCI-H358; first compound 0.006325 µM) of 0.16, a relative viability (NCI-H358; first compound 0.02 µM) of 0.167 and a relative viability (NCI-H358; first compound 0.06325 µM) of 0.147. For the same molecule, the relative viability (NCI-H358; first compound 0.2 µM) was 0.078, the relative viability (EMC-BAC-2; first compound 0.002 µM) was 0.467 and the relative viability (EMC-BAC-2; first compound 0.006325 µM) was 0.287. For the same molecule, the relative viability (EMC-BAC-2; first compound 0.02 µM) was 0.573, the relative viability (EMC-BAC-2; first compound 0.06325 µM) was 0.383 and the relative viability (EMC-BAC-2; first compound 0.2 µM) was 0.444. It also gave a relative viability (NCI-H1755; first compound 0.002 µM) of 0.415, a relative viability (NCI-H1755; first compound 0.006325 µM) of 0.424 and a relative viability (NCI-H1755; first compound 0.02 µM) of 0.415. For the same molecule, the relative viability (NCI-H1755; first compound 0.06325 µM) was 0.264, the relative viability (NCI-H1755; first compound 0.2 µM) was 0.2 and the relative viability (SK-MES-1; first compound 0.002 µM) was 0.962. For the same molecule, the relative viability (SK-MES-1; first compound 0.006325 µM) was 0.877, the relative viability (SK-MES-1; first compound 0.02 µM) was 0.517 and the relative viability (SK-MES-1; first compound 0.06325 µM) was 0.153. For the same molecule, the relative viability (SK-MES-1; first compound 0.2 µM) was 0.177, the relative viability (HCC-366; first compound 0.002 µM) was 0.169 and the relative viability (HCC-366; first compound 0.006325 µM) was 0.156. It also gave a relative viability (HCC-366; first compound 0.02 µM) of 0.366, a relative viability (HCC-366; first compound 0.06325 µM) of 0.0354 and a relative viability (HCC-366; first compound 0.2 µM) of 0.0333. It also gave a relative viability (NCI-H1437; first compound 0.002 µM) of 0.305, a relative viability (NCI-H1437; first compound 0.006325 µM) of 0.305 and a relative viability (NCI-H1437; first compound 0.02 µM) of 0.347. It also gave a relative viability (NCI-H1437; first compound 0.06325 µM) of 0.266, a relative viability (NCI-H1437; first compound 0.2 µM) of 0.156 and a relative viability (NCI-H1395; first compound 0.002 µM) of 0.875. For the same molecule, the relative viability (NCI-H1395; first compound 0.006325 µM) was 0.812, the relative viability (NCI-H1395; first compound 0.02 µM) was 0.699 and the relative viability (NCI-H1395; first compound 0.06325 µM) was 0.299. It also gave a relative viability (NCI-H1395; first compound 0.2 µM) of 0.353, a relative viability (NCI-H650; first compound 0.002 µM) of 0.925 and a relative viability (NCI-H650; first compound 0.006325 µM) of 0.983. For the same molecule, the relative viability (NCI-H650; first compound 0.02 µM) was 0.625, the relative viability (NCI-H650; first compound 0.06325 µM) was 0.257 and the relative viability (NCI-H650; first compound 0.2 µM) was 0.113. It also gave a relative viability (NCI-H2342; first compound 0.002 µM) of 0.776, a relative viability (NCI-H2342; first compound 0.006325 µM) of 0.755 and a relative viability (NCI-H2342; first compound 0.02 µM) of 0.548. For the same molecule, the relative viability (NCI-H2342; first compound 0.06325 µM) was 0.749, the relative viability (NCI-H2342; first compound 0.2 µM) was 0.454 and the relative viability (COR-L 105; first compound 0.002 µM) was 1.11. For the same molecule, the relative viability (COR-L 105; first compound 0.006325 µM) was 0.952, the relative viability (COR-L 105; first compound 0.02 µM) was 1.18 and the relative viability (COR-L 105; first compound 0.06325 µM) was 0.593. The relative viability (COR-L 105; first compound 0.2 µM) was 0.24, the relative viability (NCI-H2347; first compound 0.002 µM) was 0.402 and the relative viability (NCI-H2347; first compound 0.006325 µM) was 0.404. The relative viability (NCI-H2347; first compound 0.02 µM) was 0.426, the relative viability (NCI-H2347; first compound 0.06325 µM) was 0.42 and the relative viability (NCI-H2347; first compound 0.2 µM) was 0.317. The relative viability (NCI-H2023; first compound 0.002 µM) was 0.28, the relative viability (NCI-H2023; first compound 0.006325 µM) was 0.244 and the relative viability (NCI-H2023; first compound 0.02 µM) was 0.0961. It also gave a relative viability (NCI-H2023; first compound 0.06325 µM) of 0.071, a relative viability (NCI-H2023; first compound 0.2 µM) of 0.0739 and a relative viability (COR-L23; first compound 0.002 µM) of 0.19. It also gave a relative viability (COR-L23; first compound 0.006325 µM) of 0.187, a relative viability (COR-L23; first compound 0.02 µM) of 0.215 and a relative viability (COR-L23; first compound 0.06325 µM) of 0.196. It also gave a relative viability (COR-L23; first compound 0.2 µM) of 0.101, a relative viability (HCC-15; first compound 0.002 µM) of 0.219 and a relative viability (HCC-15; first compound 0.006325 µM) of 0.236. It also gave a relative viability (HCC-15; first compound 0.02 µM) of 0.214, a relative viability (HCC-15; first compound 0.06325 µM) of 0.193 and a relative viability (HCC-15; first compound 0.2 µM) of 0.137. For the same molecule, the relative viability (NCI-H1792; first compound 0.002 µM) was 0.816, the relative viability (NCI-H1792; first compound 0.006325 µM) was 0.615 and the relative viability (NCI-H1792; first compound 0.02 µM) was 0.117. It also gave a relative viability (NCI-H1792; first compound 0.06325 µM) of 0.0474, a relative viability (NCI-H1792; first compound 0.2 µM) of 0.0496 and a relative viability (LC-2-ad; first compound 0.002 µM) of 0.251. It also gave a relative viability (LC-2-ad; first compound 0.006325 µM) of 0.298, a relative viability (LC-2-ad; first compound 0.02 µM) of 0.26 and a relative viability (LC-2-ad; first compound 0.06325 µM) of 0.213. The relative viability (LC-2-ad; first compound 0.2 µM) was 0.205, the relative viability (NCI-H1915; first compound 0.002 µM) was 0.479 and the relative viability (NCI-H1915; first compound 0.006325 µM) was 0.482. The relative viability (NCI-H1915; first compound 0.02 µM) was 0.442, the relative viability (NCI-H1915; first compound 0.06325 µM) was 0.312 and the relative viability (NCI-H1915; first compound 0.2 µM) was 0.0621. For the same molecule, the relative viability (NCI-H2009; first compound 0.002 µM) was 1.16, the relative viability (NCI-H2009; first compound 0.006325 µM) was 0.973 and the relative viability (NCI-H2009; first compound 0.02 µM) was 1.17. The relative viability (NCI-H2009; first compound 0.06325 µM) was 0.901 and the relative viability (NCI-H2009; first compound 0.2 µM) was 0.0692.
